Results from ChEMBL document CHEMBL4765285, “Discovery of orally active indirubin-3'-oxime derivatives as potent type 1 FLT3 inhibitors for acute myeloid leukemia” (Eur J Med Chem, 2020).
Calls of active or inactive are those of the source. The rule behind the calls is not given here.

Tests used:
[1] = target: Receptor-type tyrosine-protein kinase FLT3 (Homo sapiens, UniProt P36888, ITD); assay: Binding affinity to human FLT3 ITD mutant in presence of ATP by Lanthascreen Eu kinase binding assay
[2] = target: Cyclin-dependent kinase 2 (Homo sapiens) (UniProt P24941); assay: Inhibition of human CDK2 at 100 nM in presence of ATP relative to control
[3] = Acute toxicity in ICR mouse assessed as median lethal dose; details: in vivo
MV4-11 = assay: Antitumor activity against human MV4-11 cells xenografted in BALB/c nu/nu mouse assessed as reduction in tumor volume at 20 mg/kg, po administered once daily for 21 days measured twice daily during compound dosing; assay type: functional, organism-based; details: time 21.0 day
[4] = Cmax in ICR mouse at 10 mg/kg, iv or po measured up to 1440 mins by LC-MS/MS analysis; assay type: ADME, organism-based; set-up: dose 10 mg/kg, time <=1440; details: in vivo
[5] = target: High affinity nerve growth factor receptor (Homo sapiens, UniProt P04629); assay: Inhibition of human TrkA at 100 nM in presence of ATP relative to control
[6] = target: Vascular endothelial growth factor receptor 3 (Homo sapiens, UniProt P35916); assay: Inhibition of human FLT4 in presence of ATP
[7] = Acute toxicity in ICR male mouse assessed as approximate lethal dose; details: in vivo, read-out: ALD50
[8] = target: Mast/stem cell growth factor receptor Kit (Homo sapiens) (UniProt P10721); assay: Inhibition of human c-KIT at 100 nM in presence of ATP relative to control
[9] = target: Proto-oncogene tyrosine-protein kinase receptor Ret (Homo sapiens, UniProt P07949); assay: Inhibition of human RET at 100 nM in presence of ATP relative to control
[10] = target: T1, Macrophage colony-stimulating factor 1 receptor (Homo sapiens, UniProt P07333); assay: Inhibition of human FMS in presence of ATP
[11] = target: T1, Macrophage colony-stimulating factor 1 receptor; assay: Inhibition of human FMS at 100 nM in presence of ATP relative to control
K562 = assay: Antiproliferative activity against human K562 cells assessed as cell growth inhibition by WST assay; assay type: functional
HepG2 = assay: cells; details: Homo sapiens
Description: Antiproliferative activity against human HepG2 cells assessed as cell growth inhibition by WST assay

[12] = target: Receptor-type tyrosine-protein kinase FLT3 (Homo sapiens, UniProt P36888, D835Y); assay: Inhibition of human FLT3 D835Y mutant in presence of ATP

T1 sequence (P07333 whole entry): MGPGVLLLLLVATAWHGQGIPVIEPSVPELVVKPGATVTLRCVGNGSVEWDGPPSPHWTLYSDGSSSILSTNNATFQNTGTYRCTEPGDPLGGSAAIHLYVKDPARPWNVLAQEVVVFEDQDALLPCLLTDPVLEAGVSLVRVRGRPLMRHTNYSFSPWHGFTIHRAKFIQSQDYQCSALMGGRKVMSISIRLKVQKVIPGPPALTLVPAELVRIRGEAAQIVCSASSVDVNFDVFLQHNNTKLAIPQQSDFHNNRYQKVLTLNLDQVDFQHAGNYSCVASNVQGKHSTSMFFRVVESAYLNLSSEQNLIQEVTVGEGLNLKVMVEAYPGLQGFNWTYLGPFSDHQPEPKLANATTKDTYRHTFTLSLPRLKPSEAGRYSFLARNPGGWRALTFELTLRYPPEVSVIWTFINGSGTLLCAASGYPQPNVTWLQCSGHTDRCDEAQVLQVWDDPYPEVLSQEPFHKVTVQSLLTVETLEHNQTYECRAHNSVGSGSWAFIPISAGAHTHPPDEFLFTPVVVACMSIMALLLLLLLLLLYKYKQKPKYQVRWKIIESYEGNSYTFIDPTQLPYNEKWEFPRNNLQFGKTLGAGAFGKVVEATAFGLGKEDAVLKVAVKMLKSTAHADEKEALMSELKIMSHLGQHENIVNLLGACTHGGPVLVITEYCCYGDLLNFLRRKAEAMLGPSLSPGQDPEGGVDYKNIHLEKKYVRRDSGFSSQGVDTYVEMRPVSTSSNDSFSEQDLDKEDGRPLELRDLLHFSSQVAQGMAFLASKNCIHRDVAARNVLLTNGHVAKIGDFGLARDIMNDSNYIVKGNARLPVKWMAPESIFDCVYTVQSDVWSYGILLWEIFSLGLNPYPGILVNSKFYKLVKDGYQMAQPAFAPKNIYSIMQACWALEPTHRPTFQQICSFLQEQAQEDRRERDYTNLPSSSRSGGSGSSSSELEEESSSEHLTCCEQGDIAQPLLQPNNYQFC
Vascular endothelial growth factor receptor 3, sequence (P35916 whole entry): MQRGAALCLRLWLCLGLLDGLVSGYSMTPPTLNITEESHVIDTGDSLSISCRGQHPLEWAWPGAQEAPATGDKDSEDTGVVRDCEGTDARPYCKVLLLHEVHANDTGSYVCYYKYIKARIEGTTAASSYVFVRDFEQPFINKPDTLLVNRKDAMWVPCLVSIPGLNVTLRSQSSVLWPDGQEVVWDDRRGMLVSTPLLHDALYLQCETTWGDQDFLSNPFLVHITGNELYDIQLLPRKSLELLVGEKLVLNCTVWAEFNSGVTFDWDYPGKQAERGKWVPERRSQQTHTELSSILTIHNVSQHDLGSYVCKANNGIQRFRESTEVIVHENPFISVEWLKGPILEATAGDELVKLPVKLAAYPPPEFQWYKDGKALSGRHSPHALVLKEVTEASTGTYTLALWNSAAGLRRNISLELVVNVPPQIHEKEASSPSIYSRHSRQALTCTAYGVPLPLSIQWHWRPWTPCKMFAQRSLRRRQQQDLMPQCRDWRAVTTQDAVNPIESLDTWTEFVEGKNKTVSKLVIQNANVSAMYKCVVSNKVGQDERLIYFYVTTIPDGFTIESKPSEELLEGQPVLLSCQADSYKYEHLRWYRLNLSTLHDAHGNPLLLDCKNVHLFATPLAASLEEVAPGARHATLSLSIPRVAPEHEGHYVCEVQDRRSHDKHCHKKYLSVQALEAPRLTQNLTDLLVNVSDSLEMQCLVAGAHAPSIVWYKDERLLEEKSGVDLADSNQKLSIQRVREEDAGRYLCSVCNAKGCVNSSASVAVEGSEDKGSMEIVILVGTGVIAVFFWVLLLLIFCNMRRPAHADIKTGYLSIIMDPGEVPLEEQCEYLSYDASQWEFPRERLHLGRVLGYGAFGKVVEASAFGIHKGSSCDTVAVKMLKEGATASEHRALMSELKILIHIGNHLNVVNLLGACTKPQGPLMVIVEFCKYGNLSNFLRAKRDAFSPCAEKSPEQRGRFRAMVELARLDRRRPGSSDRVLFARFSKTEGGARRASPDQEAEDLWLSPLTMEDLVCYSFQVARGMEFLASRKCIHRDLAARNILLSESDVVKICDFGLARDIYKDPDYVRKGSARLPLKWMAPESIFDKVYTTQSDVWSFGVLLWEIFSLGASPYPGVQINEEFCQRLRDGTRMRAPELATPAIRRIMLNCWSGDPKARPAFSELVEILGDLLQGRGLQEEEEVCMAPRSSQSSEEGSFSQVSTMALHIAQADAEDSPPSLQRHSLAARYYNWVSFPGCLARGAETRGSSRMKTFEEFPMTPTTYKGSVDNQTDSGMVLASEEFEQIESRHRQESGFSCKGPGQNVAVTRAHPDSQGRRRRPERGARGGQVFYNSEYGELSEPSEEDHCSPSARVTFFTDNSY
Proto-oncogene tyrosine-protein kinase receptor Ret, sequence (P07949 whole entry): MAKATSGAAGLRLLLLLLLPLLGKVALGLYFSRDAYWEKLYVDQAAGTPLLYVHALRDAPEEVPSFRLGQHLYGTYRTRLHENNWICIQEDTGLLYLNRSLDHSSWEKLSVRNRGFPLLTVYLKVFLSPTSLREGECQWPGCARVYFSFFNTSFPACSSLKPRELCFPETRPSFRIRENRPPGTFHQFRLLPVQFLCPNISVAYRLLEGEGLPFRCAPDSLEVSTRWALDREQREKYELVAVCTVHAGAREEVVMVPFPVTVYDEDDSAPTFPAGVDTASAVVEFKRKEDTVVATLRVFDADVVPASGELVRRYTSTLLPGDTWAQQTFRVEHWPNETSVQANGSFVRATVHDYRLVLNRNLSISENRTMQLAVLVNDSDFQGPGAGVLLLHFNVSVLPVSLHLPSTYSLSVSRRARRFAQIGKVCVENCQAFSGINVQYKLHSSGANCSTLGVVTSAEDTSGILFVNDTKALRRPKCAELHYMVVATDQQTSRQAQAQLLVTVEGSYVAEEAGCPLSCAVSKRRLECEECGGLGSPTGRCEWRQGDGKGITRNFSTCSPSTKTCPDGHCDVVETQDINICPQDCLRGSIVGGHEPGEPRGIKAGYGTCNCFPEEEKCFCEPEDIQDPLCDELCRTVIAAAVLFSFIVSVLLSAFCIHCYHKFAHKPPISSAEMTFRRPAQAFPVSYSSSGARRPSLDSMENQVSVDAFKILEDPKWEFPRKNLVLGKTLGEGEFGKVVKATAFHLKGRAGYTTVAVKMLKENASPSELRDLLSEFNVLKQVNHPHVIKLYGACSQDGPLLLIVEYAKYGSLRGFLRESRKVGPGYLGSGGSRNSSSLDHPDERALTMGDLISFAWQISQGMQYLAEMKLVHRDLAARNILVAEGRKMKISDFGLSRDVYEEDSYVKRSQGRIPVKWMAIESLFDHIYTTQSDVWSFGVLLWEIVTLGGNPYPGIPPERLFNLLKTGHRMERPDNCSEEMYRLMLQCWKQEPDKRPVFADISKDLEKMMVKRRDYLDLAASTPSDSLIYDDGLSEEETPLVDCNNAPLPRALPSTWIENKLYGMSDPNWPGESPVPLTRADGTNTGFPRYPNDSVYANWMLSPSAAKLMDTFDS
Mast/stem cell growth factor receptor Kit (Homo sapiens), sequence (P10721 whole entry): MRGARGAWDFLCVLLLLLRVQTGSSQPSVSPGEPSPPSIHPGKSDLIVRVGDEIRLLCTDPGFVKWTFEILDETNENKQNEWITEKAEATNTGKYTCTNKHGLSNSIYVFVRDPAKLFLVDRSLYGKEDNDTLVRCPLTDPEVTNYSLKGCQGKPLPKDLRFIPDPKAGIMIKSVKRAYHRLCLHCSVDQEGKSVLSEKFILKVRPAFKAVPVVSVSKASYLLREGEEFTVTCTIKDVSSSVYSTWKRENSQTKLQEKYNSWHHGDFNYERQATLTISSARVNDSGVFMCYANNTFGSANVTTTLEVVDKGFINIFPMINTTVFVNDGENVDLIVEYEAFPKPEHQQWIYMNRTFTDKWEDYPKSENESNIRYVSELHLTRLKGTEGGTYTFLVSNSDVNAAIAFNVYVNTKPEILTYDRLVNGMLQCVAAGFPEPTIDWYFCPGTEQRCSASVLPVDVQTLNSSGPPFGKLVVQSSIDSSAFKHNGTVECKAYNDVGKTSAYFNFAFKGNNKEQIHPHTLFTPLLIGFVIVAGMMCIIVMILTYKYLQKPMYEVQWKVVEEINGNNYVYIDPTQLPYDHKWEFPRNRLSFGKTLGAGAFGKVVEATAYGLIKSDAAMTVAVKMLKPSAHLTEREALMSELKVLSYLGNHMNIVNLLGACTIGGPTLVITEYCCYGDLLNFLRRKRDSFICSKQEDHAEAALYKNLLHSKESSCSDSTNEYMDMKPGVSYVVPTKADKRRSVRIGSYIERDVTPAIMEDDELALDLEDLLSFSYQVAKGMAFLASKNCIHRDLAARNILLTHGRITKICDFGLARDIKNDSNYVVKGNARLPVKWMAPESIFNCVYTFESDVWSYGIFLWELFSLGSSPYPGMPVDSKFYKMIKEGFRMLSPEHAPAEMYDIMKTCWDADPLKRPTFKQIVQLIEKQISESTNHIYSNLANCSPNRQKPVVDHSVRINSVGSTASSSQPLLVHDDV

Cl.O=C1Nc2ccc(F)cc2/C1=C1/Nc2ccccc2/C1=N\OCCN1CCNCC1
Kd [1]: < 0.25 nM
inhibition [2]: 43%
LD50 [3]: 4950 mg/kg
Activity (MV4-11): Active
Cmax [4]: 36.5 ng/mL
inhibition [5]: 99%
IC50 [6]: 23.8 nM
LD50 [7]: 2000 mg/kg
inhibition [8]: 22%
inhibition [9]: 98%
IC50 [10]: 4.2 nM
inhibition [11]: 92%
GI50 (K562): 437 nM
GI50 (HepG2): 1100 nM
IC50 [12]: 0.32 nM
